According to PubChem BioAssay (NCI):
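Step 1: Grow cells in 96-well plates. Step 2: Expose to compound for 48 hours at 5 concentrations. Step 3: Interpolate endpoints linearly; if unreached, use highest concentration. GI50 is the concentration that inhibits growth by half. TGI marks complete inhibition of growth.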

Tests used:
Assay in all cases: DTP human tumour cell line panel, 48 h
SNB-75 CNS = test system: SNB-75 CNS
MALME-3M melanoma = test system: MALME-3M melanoma
HCC-2998 colon = test system: HCC-2998 colon
OVCAR-3 ovarian = test system: OVCAR-3 ovarian
CAKI-1 renal = test system: CAKI-1 renal
NCI-H226 lung = test system: NCI-H226 lung
TK-10 renal = test system: TK-10 renal
HOP-92 NSCLC = test system: HOP-92 NSCLC
HS 578T breast = test system: HS 578T breast
NCI/ADR-RES ovarian = test system: NCI/ADR-RES ovarian

Compound: O=C(O)\C=C/C=C/C=C/C=C/C(=O)O
- TGI (SNB-75 CNS): > 100 µM
- TGI (MALME-3M melanoma): > 100 µM
- TGI (HCC-2998 colon): > 100 µM
- TGI (OVCAR-3 ovarian): > 100 µM
- TGI (CAKI-1 renal): > 100 µM
- TGI (NCI-H226 lung): > 100 µM

Compound: Nc1ccc([As](=O)(O)O)cc1
- TGI (SNB-75 CNS): > 100 µM
- TGI (MALME-3M melanoma): > 100 µM
- TGI (TK-10 renal): > 100 µM
- TGI (HCC-2998 colon): > 100 µM
- TGI (OVCAR-3 ovarian): > 100 µM
- TGI (HOP-92 NSCLC): > 100 µM
- TGI (CAKI-1 renal): > 100 µM
- TGI (HS 578T breast): > 100 µM
- TGI (NCI/ADR-RES ovarian): > 100 µM
- TGI (NCI-H226 lung): > 100 µM

Compound: NS(=O)(=O)c1ccc(C(=O)O)cc1
- TGI (MALME-3M melanoma): > 100 µM
- TGI (TK-10 renal): > 100 µM
- TGI (OVCAR-3 ovarian): > 100 µM
- TGI (HOP-92 NSCLC): > 100 µM
- TGI (CAKI-1 renal): > 100 µM
- TGI (HS 578T breast): > 100 µM
- TGI (NCI/ADR-RES ovarian): > 100 µM

Compound: CC(C)(c1ccccc1)c1ccc(Oc2ccc3c(c2)-c2nc-3nc3[nH]c(nc4nc(nc5[nH]c(n2)c2ccc(Oc6ccc(C(C)(C)c7ccccc7)cc6)cc52)-c2cc(Oc5ccc(C(C)(C)c6ccccc6)cc5)ccc2-4)c2ccc(Oc4ccc(C(C)(C)c5ccccc5)cc4)cc32)cc1
- TGI (SNB-75 CNS): 67.8 µM
- TGI (MALME-3M melanoma): > 100 µM
- TGI (TK-10 renal): > 100 µM
- TGI (HCC-2998 colon): > 100 µM
- TGI (HOP-92 NSCLC): > 100 µM

Compound: Cn1ncc2c(=O)[nH]c(-c3ccccc3)nc21
- TGI (SNB-75 CNS): > 100 µM
- TGI (MALME-3M melanoma): > 100 µM
- TGI (TK-10 renal): > 100 µM
- TGI (HCC-2998 colon): > 100 µM
- TGI (CAKI-1 renal): > 100 µM

Compound: CCCCCCCCCCCCCCC(C(=O)[O-])[n+]1ccccc1 (stereo not given)
- TGI (SNB-75 CNS): > 100 µM
- TGI (TK-10 renal): 28.8 µM
- TGI (HCC-2998 colon): > 100 µM
- TGI (OVCAR-3 ovarian): > 100 µM
- TGI (HOP-92 NSCLC): > 100 µM
- TGI (CAKI-1 renal): > 100 µM
- TGI (HS 578T breast): > 100 µM
- TGI (NCI/ADR-RES ovarian): > 100 µM
- TGI (NCI-H226 lung): > 100 µM

Compound: Cc1cccc(NC(N)=S)c1
- TGI (SNB-75 CNS): > 100 µM
- TGI (MALME-3M melanoma): > 100 µM
- TGI (TK-10 renal): > 100 µM
- TGI (HCC-2998 colon): > 100 µM
- TGI (OVCAR-3 ovarian): > 100 µM

Compound: N=C(N)SC(c1ccccc1)c1ccccc1
- TGI (MALME-3M melanoma): 34.6 µM
- TGI (TK-10 renal): 28.2 µM
- TGI (HCC-2998 colon): 20.1 µM
- TGI (OVCAR-3 ovarian): 28.7 µM
- TGI (HOP-92 NSCLC): 22.9 µM
- TGI (CAKI-1 renal): 29.4 µM
- TGI (HS 578T breast): > 100 µM
- TGI (NCI/ADR-RES ovarian): 47 µM
- TGI (NCI-H226 lung): 60.9 µM

Compound: CC1(C)CCCC2(C)C3=C(CCC12)C(=O)OC3 (stereo not given)
- TGI (SNB-75 CNS): > 100 µM
- TGI (MALME-3M melanoma): > 100 µM
- TGI (TK-10 renal): > 100 µM
- TGI (HCC-2998 colon): > 100 µM
- TGI (OVCAR-3 ovarian): > 100 µM
- TGI (HOP-92 NSCLC): > 100 µM
- TGI (CAKI-1 renal): > 100 µM
- TGI (HS 578T breast): > 100 µM
- TGI (NCI/ADR-RES ovarian): > 100 µM
- TGI (NCI-H226 lung): > 100 µM

Compound: O=C(Nc1ccc(-n2ccc3c(NC(=O)c4ccccc4)ncnc32)cc1)Nc1ccc(Cl)c(C(F)(F)F)c1
- GI50 (SNB-75 CNS): 1.67 µM
- TGI (SNB-75 CNS): 8.08 µM
- GI50 (MALME-3M melanoma): 1.94 µM
- TGI (MALME-3M melanoma): 4.54 µM
- GI50 (TK-10 renal): 1.8 µM
- TGI (TK-10 renal): 4.95 µM
- GI50 (HCC-2998 colon): 2.47 µM
- TGI (HCC-2998 colon): 6.54 µM
- GI50 (OVCAR-3 ovarian): 1.72 µM
- TGI (OVCAR-3 ovarian): 3.22 µM
- GI50 (HOP-92 NSCLC): 1.41 µM
- TGI (HOP-92 NSCLC): 4 µM
- GI50 (CAKI-1 renal): 1.69 µM
- TGI (CAKI-1 renal): 3.81 µM
- GI50 (HS 578T breast): 1.27 µM
- TGI (HS 578T breast): 4.61 µM
- GI50 (NCI/ADR-RES ovarian): 2.41 µM
- TGI (NCI/ADR-RES ovarian): 8.55 µM
- GI50 (NCI-H226 lung): 2.39 µM
- TGI (NCI-H226 lung): 7.06 µM

Compound: Cc1cc(N2CCCCC2)nc(NCc2cc(Nc3ccnc4cc(Cl)ccc34)ccc2F)n1
- GI50 (SNB-75 CNS): 1.39 µM
- TGI (SNB-75 CNS): 2.83 µM
- GI50 (TK-10 renal): 1.96 µM
- TGI (TK-10 renal): 3.67 µM
- GI50 (OVCAR-3 ovarian): 1.74 µM
- TGI (OVCAR-3 ovarian): 3.17 µM
- GI50 (CAKI-1 renal): 1.74 µM
- TGI (CAKI-1 renal): 3.32 µM
- GI50 (HS 578T breast): 2.03 µM
- TGI (HS 578T breast): 4.62 µM
- GI50 (NCI/ADR-RES ovarian): 2 µM
- TGI (NCI/ADR-RES ovarian): 4.74 µM
- GI50 (NCI-H226 lung): 2.02 µM
- TGI (NCI-H226 lung): 4.57 µM

Compound: O=C1CC(c2ccccc2)NCCCCN2CC(CN1)C(C(O)c1ccccc1)C2=O (stereo not given)
- TGI (SNB-75 CNS): > 100 µM
- TGI (MALME-3M melanoma): > 100 µM
- TGI (TK-10 renal): > 100 µM
- TGI (HCC-2998 colon): > 100 µM
- TGI (OVCAR-3 ovarian): > 100 µM
- TGI (HOP-92 NSCLC): > 100 µM
- TGI (CAKI-1 renal): > 100 µM
- TGI (HS 578T breast): > 100 µM
- TGI (NCI/ADR-RES ovarian): > 100 µM
- TGI (NCI-H226 lung): > 100 µM

Compound: CC1(C)CCc2cc3c(cc2O1)OC(C)(C)CC3=O
- TGI (SNB-75 CNS): > 100 µM
- TGI (OVCAR-3 ovarian): > 100 µM
- TGI (HOP-92 NSCLC): 70.7 µM
- TGI (CAKI-1 renal): > 100 µM
- TGI (NCI-H226 lung): > 100 µM
